The record followed here is patent US20220298160A1, “COMPOUNDS USEFUL IN HIV THERAPY” (priority 2019, published 2022).

Test [1] has as its system HIV pseudotyped virus (NL4-3 provirus), M184V. In kind it is cell-based. To be noted: PSV assay; U373 cells expressing human CD4 and CXCR4 or CCR5; luciferase signal after 3 days of culture.
The test system of test [2] is HIV pseudotyped virus (NL4-3 provirus), WT. The experiment in a line: PSV assay (pseudotyped virus assay), WT. The note with it: Human immunodeficiency virus 1, NL43, in Homo sapiens, 72 h, read-out: WT IC50 (μM), PSV assay; U373 cells expressing human CD4 and CXCR4 or CCR5; luciferase signal after 3 days of culture.
Description: A pseudotyped virus assay (PSV) was used to assess the potency of the HIV inhibitor. Replication defective virus was produced by co-transfection of a plasmid containing an NL4-3 provirus [containing a mutation in the envelope open reading frame (ORF) and a luciferase reporter gene replacing the nef ORF] and a CMV-promoter expression plasmid containing an ORF for various HIV gp160 envelope clones. The harvested virus was stored at −80 C in small aliquots and the titer of the virus measured to produce a robust signal for antiviral assays.
The PSV assay was performed by using U373 cells stably transformed to express human CD4, the primary receptor for HIV entry and either human CXCR4 or human CCR5 which are the co-receptors required for HIV entry as target cells for infection. […] This dose-range was applied to U373 cells and the pre-made pseudotyped virus added. The amount of luciferase signal produced after 3 days of culture was used to reflect the level of pseudotyped virus infection. An IC50, or the concentration of inhibitor required to reduce PSV infection by 50% from the infection containing no inhibitor was calculated. […] IC50 values were determined from a 10 point dose response curve using 3-4-fold serial dilution for each compound, which spans a concentration range >1000 fold.

Take `C#C[C@]1(CO)O[C@@H](n2cnc3c(N)nc(F)nc32)C[C@@H]1OC(=O)NC1CC1` [Example 24, (2R,3S,5R)-5-(6-amino-2-fluoro-9H-purin-9-yl)-2-ethynyl-2-(hydroxymethyl)tetrahydrofuran-3-yl cyclopropylcarbamate]: the IC50 (as a rule, the concentration that gives 50% inhibition) turned out to be 3740 nM in test [1] and 1.48 µM in test [2].

Turning to `C#C[C@]1(CO)O[C@@H](n2cnc3c(N)nc(F)nc32)C[C@@H]1OC(=O)NCC(=O)OCC` [Example 25, ethyl ((((2R,3S,5R)-5-(6-amino-2-fluoro-9H-purin-9-yl)-2-ethynyl-2-(hydroxymethyl)tetrahydrofuran-3-yl)oxy)carbonyl)glycinate], the results for the half-maximal inhibitory concentration (IC50) in test [1] and in test [2] were 1260 nM and 1.18 µM, respectively.

In the case of `C#C[C@]1(CO)O[C@@H](n2cnc3c(N)nc(F)nc32)C[C@@H]1OC(=O)NCC(=O)OC(C)(C)C` [Example 26, tert-butyl ((((2R,3S,5R)-5-(6-amino-2-fluoro-9H-purin-9-yl)-2-ethynyl-2-(hydroxymethyl)tetrahydrofuran-3-yl)oxy)carbonyl)glycinate], the IC50 is 17300 nM in test [1] and 16.1 µM in test [2].

Regarding `C#C[C@]1(CO)O[C@@H](n2cnc3c(N)nc(F)nc32)C[C@@H]1OC(=O)NCC(=O)OCCCCC` [Example 27, pentyl ((((2R,3S,5R)-5-(6-amino-2-fluoro-9H-purin-9-yl)-2-ethynyl-2-(hydroxymethyl)tetrahydrofuran-3-yl)oxy)carbonyl)glycinate], the values for the half-maximal inhibitory concentration (IC50) in test [1] and in test [2] were above 25000 nM and above 25 µM, respectively.

Take `C#C[C@]1(CO)O[C@@H](n2cnc3c(N)nc(F)nc32)C[C@@H]1OC(=O)OC(COC(C)=O)COC(C)=O` [Example 28, 2-(((((2R,3S,5R)-5-(6-amino-2-fluoro-9H-purin-9-yl)-2-ethynyl-2-(hydroxymethyl)tetrahydrofuran-3-yl)oxy)carbonyl)oxy)propane-1,3-diyl diacetate]: the IC50 in test [1] was found to be 39.2 nM; in test [2], 0.0106 µM.

Regarding `C#C[C@]1(CO)O[C@@H](n2cnc3c(N)nc(F)nc32)C[C@@H]1OC(=O)OC(COC(=O)CCCC)COC(=O)CCCC` [Example 29, 2-(((((2R,3S,5R)-5-(6-amino-2-fluoro-9H-purin-9-yl)-2-ethynyl-2-(hydroxymethyl)tetrahydrofuran-3-yl)oxy)carbonyl)oxy)propane-1,3-diyl dipentanoate], the IC50 in test [1] worked out at 28.3 nM; in test [2] it was 0.0077 µM.

`C#C[C@]1(CO)O[C@@H](n2cnc3c(N)nc(F)nc32)C[C@@H]1OC(=O)OC(COC(=O)CCCCCCCC)COC(=O)CCCCCCCC` [Example 30, 2-(((((2R,3S,5R)-5-(6-amino-2-fluoro-9H-purin-9-yl)-2-ethynyl-2-(hydroxymethyl)tetrahydrofuran-3-yl)oxy)carbonyl)oxy)propane-1,3-diyl dinonanoate]: the IC50 in test [1] is 29.3 nM; in test [2], 0.0077 µM.

As for `C#C[C@]1(CO)O[C@@H](n2cnc3c(N)nc(F)nc32)C[C@@H]1OC(=O)OC1COC(=O)CCCCCCCCCCCC(=O)OC1` [Example 31, (2R,3S,5R)-5-(6-amino-2-fluoro-9H-purin-9-yl)-2-ethynyl-2-(hydroxymethyl)tetrahydrofuran-3-yl (6,18-dioxo-1,5-dioxacyclooctadecan-3-yl) carbonate], the IC50 came to 47.8 nM in test [1] and 0.0151 µM in test [2].

On to `C#C[C@]1(CO)O[C@@H](n2cnc3c(NC(=O)OC(COC(=O)CCCC)COC(=O)CCCC)nc(F)nc32)C[C@@H]1O` [Example 32, 2-(((9-((2R,4S,5R)-5-ethynyl-4-hydroxy-5-(hydroxymethyl)tetrahydrofuran-2-yl)-2-fluoro-9H-purin-6-yl)carbamoyl)oxy)propane-1,3-diyl dipentanoate], for which the IC50 in test [1] amounted to 26.9 nM; in test [2], 0.0075 µM.

Regarding `C#C[C@]1(CO)O[C@@H](n2cnc3c(NC(=O)OC(COC(=O)CCCCCCCC)COC(=O)CCCCCCCC)nc(F)nc32)C[C@@H]1O` [Example 33, 2-(((9-((2R,4S,5R)-5-ethynyl-4-hydroxy-5-(hydroxymethyl)tetrahydrofuran-2-yl)-2-fluoro-9H-purin-6-yl)carbamoyl)oxy)propane-1,3-diyl dinonanoate], the figures for the IC50 in test [1] and in test [2] were 24.3 nM and 0.0054 µM, respectively.

As for `C#C[C@]1(CO)O[C@@H](n2cnc3c(NC(=O)OC4COC(=O)CCCCCCCCCCCC(=O)OC4)nc(F)nc32)C[C@@H]1O` [Example 34, 6,18-dioxo-1,5-dioxacyclooctadecan-3-yl (9-((2R,4S,5R)-5-ethynyl-4-hydroxy-5-(hydroxymethyl)tetrahydrofuran-2-yl)-2-fluoro-9H-purin-6-yl)carbamate], the IC50 in test [1] stood at 67.8 nM; in test [2], 0.0132 µM.
